From publication PMC7555119, “Characterization of Novel Synthetic Polyphenols: Validation of Antioxidant and Vasculoprotective Activities” (Antioxidants, 2020)

Experiment: Oxygen radical absorbance capacity (ORAC) assay
Conditions: not given
Method: The ORAC assay was performed following Ou et al., as modified by Garcés-Rimón et al.. All samples and reagents were dissolved in phosphate buffer (75 mM; pH 7.4). […] The fluorescence was recorded at 40 °C every 55 s for 95 min using a fluorimeter (SpectraMax M2; Molecular Devices, California, USA), with excitation and emission wavelengths of 480 and 520 nm, respectively. All samples were tested in triplicate. ORAC values were expressed as μmol of Trolox equivalents (TE)/μmol of pure compound.

| Compound | ORAC |
| --- | --- |
| O=C(Cc1cc(O)ccc1O)Nc1ccc(O)cc1O [Compound 1, N-(2,4-Dihydroxyphenyl)-2-(2′,5′-dihydroxyphenyl)acetamide] | 11.0 ± 0.4 µmol of trolox/µmol of pure compound |
| O=C(Cc1ccc(O)cc1O)Nc1cc(O)ccc1O [Compound 2, 2-(2′,4′-Dihydroxyphenyl)-N-(2,5-dihydroxyphenyl)acetamide] | 8.1 ± 0.1 µmol of trolox/µmol of pure compound |
| O=C(Cc1cc(O)ccc1O)Nc1cc(O)ccc1O [Compound 4, N-(2,5-Dihydroxyphenyl)-2-(2′,5′-dihydroxyphenyl)acetamide] | 14.4 ± 0.2 µmol of trolox/µmol of pure compound |
| O=C(Cc1ccc(O)cc1O)Nc1ccc(O)cc1O [Compound 5, N-(2,4-Dihydroxyphenyl)-2-(2′,4′-dihydroxyphenyl)acetamide] | 5.2 ± 0.4 µmol of trolox/µmol of pure compound |
| O=C(Cc1cc(O)ccc1O)Nc1ccc(O)c(O)c1 [Compound 6, 2-(2′,5′-Dihydroxyphenyl)-N-(3,4-dihydroxyphenyl)acetamide] | 9.4 ± 0.4 µmol of trolox/µmol of pure compound |
| O=C(Cc1cc(O)ccc1O)N(c1ccc(O)cc1)c1ccc(O)cc1 [Compound 9, 2-(2′,5′-Dihydroxyphenyl)-N,N-bis(4-hydroxyphenyl)acetamide] | 29.5 ± 0.5 µmol of trolox/µmol of pure compound |
| O=C(Cc1cc(O)ccc1O)N(Cc1cc(O)ccc1O)c1ccc(O)cc1 [Compound 10, N-(2′,5′-Dihydroxybenzyl)-2-(2″,5″-dihydroxyphenyl)-N-(4-hydroxyphenyl) acetamide] | 27.6 ± 0.5 µmol of trolox/µmol of pure compound |
| O=C(Nc1ccc(O)cc1O)Nc1cc(O)ccc1O [Compound 11, N-(2,4-Dihydroxyphenyl)-N′-(2′,5′-dihydroxyphenyl)urea] | 6.6 ± 0.1 µmol of trolox/µmol of pure compound |
| O=C(Nc1ccc(O)cc1)Nc1cc(O)ccc1O [Compound 12, N-(2,5-Dihydroxyphenyl)-N′-(4′-hydroxyphenyl)urea] | 12.5 ± 0.7 µmol of trolox/µmol of pure compound |
| O=C(Nc1ccc(O)c(O)c1)Nc1cc(O)ccc1O [Compound 13, N-(2,5-Dihydroxyphenyl)-N′-(3′,4′-dihydroxyphenyl)urea] | 7.8 ± 0.3 µmol of trolox/µmol of pure compound |
| O=C(Nc1ccc(O)cc1)Nc1ccc(O)c(O)c1 [Compound 14, N-(3,4-Dihydroxyphenyl)-N′-(4′-hydroxyphenyl)urea] | 9.6 ± 0.1 µmol of trolox/µmol of pure compound |
| O=C(Nc1cc(O)ccc1O)Nc1cc(O)ccc1O [Compound 16, N,N′-bis(2,5-Dihydroxyphenyl)urea] | 11.9 ± 0.4 µmol of trolox/µmol of pure compound |
| O=C(Nc1cc(O)ccc1O)N(Cc1cc(O)ccc1O)c1ccc(O)cc1 [Compound 18, N-(2′,5′-Dihydroxybenzyl)-N′-(2″,5″-dihydroxiphenyl)-N-(4-hydroxyphenyl)urea] | 15.3 ± 0.7 µmol of trolox/µmol of pure compound |

Same assay, conditions: TE: Trolox Equivalents

| Compound | ORAC |
| --- | --- |
| O=C(Cc1cc(O)ccc1O)N(c1ccc(O)cc1)c1ccc(O)cc1 [Compound 9, 2-(2′,5′-Dihydroxyphenyl)-N,N-bis(4-hydroxyphenyl)acetamide] | above 25 TE |
| O=C(Cc1cc(O)ccc1O)N(Cc1cc(O)ccc1O)c1ccc(O)cc1 [Compound 10, N-(2′,5′-Dihydroxybenzyl)-2-(2″,5″-dihydroxyphenyl)-N-(4-hydroxyphenyl) acetamide] | above 25 TE |

Experiment: Stability in aqueous media (H2O/acetonitrile 80:20, HPLC-MS)
Format: physicochemical
Conditions: H2O/acetonitrile (80:20%), room temperature, checked for 60 days
Description: The solutions were checked by HPLC-MS at regular intervals of time for 60 days. […] The rest of the compounds suffered progressive degradation, with complete disappearance from the solution after 10 or 20 days. The most unstable polyphenol derivatives were 4 and 10 (Figure S1), having both two p-dihydroxy substitutions in the phenyl rings, which points to the rapid and easy oxidation to the p-hydroquinone. From the four compounds with three phenyl rings, only one was stable in aqueous solution (17).

| stability in aqueous media | Compound |
| --- | --- |
| most unstable | O=C(Cc1cc(O)ccc1O)Nc1cc(O)ccc1O [Compound 4, N-(2,5-Dihydroxyphenyl)-2-(2′,5′-dihydroxyphenyl)acetamide] |
| most unstable | O=C(Cc1cc(O)ccc1O)N(Cc1cc(O)ccc1O)c1ccc(O)cc1 [Compound 10, N-(2′,5′-Dihydroxybenzyl)-2-(2″,5″-dihydroxyphenyl)-N-(4-hydroxyphenyl) acetamide] |

Same assay, conditions: remaining pure compound (HPLC) after two months at room temperature in aqueous solution (+20% acetonitrile)

| Compound | Aqueous Stability (%) |
| --- | --- |
| O=C(Cc1cc(O)ccc1O)Nc1ccc(O)c(O)c1 [Compound 6, 2-(2′,5′-Dihydroxyphenyl)-N-(3,4-dihydroxyphenyl)acetamide] | 0 |
| O=C(Nc1ccc(O)cc1)Nc1cc(O)ccc1O [Compound 12, N-(2,5-Dihydroxyphenyl)-N′-(4′-hydroxyphenyl)urea] | 0 |
| O=C(Nc1ccc(O)cc1)Nc1ccc(O)c(O)c1 [Compound 14, N-(3,4-Dihydroxyphenyl)-N′-(4′-hydroxyphenyl)urea] | 0 |
| O=C(Nc1cc(O)ccc1O)Nc1cc(O)ccc1O [Compound 16, N,N′-bis(2,5-Dihydroxyphenyl)urea] | 0 |

Continued, values first:

| Aqueous Stability (%) | Compound |
| --- | --- |
| 2 | O=C(Cc1cc(O)ccc1O)Nc1ccc(O)cc1O [Compound 1, N-(2,4-Dihydroxyphenyl)-2-(2′,5′-dihydroxyphenyl)acetamide] |
| 0 | O=C(Cc1cc(O)ccc1O)Nc1cc(O)ccc1O [Compound 4, N-(2,5-Dihydroxyphenyl)-2-(2′,5′-dihydroxyphenyl)acetamide] |
| 0 | O=C(Cc1cc(O)ccc1O)N(c1ccc(O)cc1)c1ccc(O)cc1 [Compound 9, 2-(2′,5′-Dihydroxyphenyl)-N,N-bis(4-hydroxyphenyl)acetamide] |
| 0 | O=C(Cc1cc(O)ccc1O)N(Cc1cc(O)ccc1O)c1ccc(O)cc1 [Compound 10, N-(2′,5′-Dihydroxybenzyl)-2-(2″,5″-dihydroxyphenyl)-N-(4-hydroxyphenyl) acetamide] |
| 0 | O=C(Nc1cc(O)ccc1O)N(Cc1cc(O)ccc1O)c1ccc(O)cc1 [Compound 18, N-(2′,5′-Dihydroxybenzyl)-N′-(2″,5″-dihydroxiphenyl)-N-(4-hydroxyphenyl)urea] |

Experiment: not given
Conditions: not given

| Compound | melting point |
| --- | --- |
| O=C(Cc1ccc(O)cc1O)Nc1ccc(O)cc1O [Compound 5, N-(2,4-Dihydroxyphenyl)-2-(2′,4′-dihydroxyphenyl)acetamide] | 75 to 78 °C |
| O=C(Cc1cc(O)ccc1O)Nc1ccc(O)c(O)c1 [Compound 6, 2-(2′,5′-Dihydroxyphenyl)-N-(3,4-dihydroxyphenyl)acetamide] | 180 °C (dec.) |
| O=C(Nc1ccc(O)cc1O)Nc1cc(O)ccc1O [Compound 11, N-(2,4-Dihydroxyphenyl)-N′-(2′,5′-dihydroxyphenyl)urea] | > 155 °C (dec.) |
| O=C(Nc1ccc(O)cc1)Nc1cc(O)ccc1O [Compound 12, N-(2,5-Dihydroxyphenyl)-N′-(4′-hydroxyphenyl)urea] | 180 to 182 °C |
| O=C(Nc1ccc(O)c(O)c1)Nc1cc(O)ccc1O [Compound 13, N-(2,5-Dihydroxyphenyl)-N′-(3′,4′-dihydroxyphenyl)urea] | 141 to 143 °C |
| O=C(Nc1ccc(O)cc1)Nc1ccc(O)c(O)c1 [Compound 14, N-(3,4-Dihydroxyphenyl)-N′-(4′-hydroxyphenyl)urea] | 184 to 187 °C |
| O=C(Nc1cc(O)ccc1O)Nc1cc(O)ccc1O [Compound 16, N,N′-bis(2,5-Dihydroxyphenyl)urea] | 109 °C (dec.) |

Now from value to compound:

| melting point | Compound |
| --- | --- |
| 178 to 180 °C | O=C(Cc1cc(O)ccc1O)Nc1ccc(O)cc1O [Compound 1, N-(2,4-Dihydroxyphenyl)-2-(2′,5′-dihydroxyphenyl)acetamide] |
| 204 to 207 °C (dec.) | O=C(Cc1cc(O)ccc1O)Nc1cc(O)ccc1O [Compound 4, N-(2,5-Dihydroxyphenyl)-2-(2′,5′-dihydroxyphenyl)acetamide] |
| 124 to 126 °C | O=C(Cc1cc(O)ccc1O)N(c1ccc(O)cc1)c1ccc(O)cc1 [Compound 9, 2-(2′,5′-Dihydroxyphenyl)-N,N-bis(4-hydroxyphenyl)acetamide] |
| 114 to 116 °C | O=C(Cc1cc(O)ccc1O)N(Cc1cc(O)ccc1O)c1ccc(O)cc1 [Compound 10, N-(2′,5′-Dihydroxybenzyl)-2-(2″,5″-dihydroxyphenyl)-N-(4-hydroxyphenyl) acetamide] |
| 114 to 115 °C | O=C(Nc1cc(O)ccc1O)N(Cc1cc(O)ccc1O)c1ccc(O)cc1 [Compound 18, N-(2′,5′-Dihydroxybenzyl)-N′-(2″,5″-dihydroxiphenyl)-N-(4-hydroxyphenyl)urea] |
